The source of these data is US20190327974A1, “SYNERGISTS FOR IMPROVED PESTICIDES” (priority 2017, published 2019).

Broadly, the pIC50 is the IC50 on a negative log10 scale, so that one unit is a factor of ten. A word on the pKi: it is the negative decadic logarithm of the Ki, by convention in mol/L.

The test system of data set [1] is 293T. Nature of the data set: Cell toxicity panel, viability (luminescence). The following applies: Homo sapiens, HEK-293T; Readout: Luminescence; read-out: IC50 Viability Cells, Cell line: 293T. Type of data set: cell-based. As to the method: To further establish the safety and cell toxicity of compounds according to this invention, their IC50 in killing a broad panel of human cell lines (including both cancerous and non-cancerous) cell lines was determined, and their cell toxicity was tested.

The target in data set [2] is T1, Electrophorus electricus AChE (Electrophorus electricus, UniProt O42275).
T1 construct: purchased Sigma Type V-S
The data set is described as follows: AChE selectivity (Ellman, acetylthiocholine). Type of data set: biochemical. The following applies: for pKi: tested to solubility limit, read-out: Ki Ee AChE. Here is the method:
Initially, the KM for AChE with the substrate acetylthiocholine was determined by monitoring thiocholine production with 5,5′-dithiobis(2-nitrobenzoic acid) (DTNB) at 412 nm. Acetylthiocholine was prepared in assay buffer (100 mM NaH2PO4 pH 7.4) to 10 mM and serially diluted 1-in-2 to achieve concentrations from 10 mM to 0.08 mM while AChE was prepared in 20 mM NaH2PO4 pH 7.0 supplemented with 4 mg/ml BSA to 0.4 nM. […] The reaction was initiated by the addition of 20 μl AChE (40 pM final concentration). Product formation was monitored for six minutes at room temperature and the initial rates of thioester hydrolysis were determined by linear regression using GraphPad Prism. The Michalis constant was determined as before (FIG. 10).
AChE inhibition was determined by assaying the initial rate of acetylthiocholine hydrolysis in the presence of either neat DMSO or the boronic acid compounds in DMSO. […] Reactions were prepared by pipetting 178 μl assay buffer supplemented with acetylthiocholine (to a final concentration of 100 μM) and DTBN (to a final concentration of 300 μM) into wells of a 96-well plate. […] The reaction was initiated by the addition of 20 μl enzyme (final concentration 40 pM). Product formation was monitored for six minutes at room temperature and the initial rates of thioester hydrolysis were determined by linear regression. IC50 and Ki values were determined as described previously (FIG. 9).

The target of data set [3] is Culex quinquefasciatus CBE (Culex quinquefasciatus, UniProt Q23734). Nature of the data set: Inhibition of insect CBEs, 4-NPB substrate. Type of data set: biochemical. The following applies: n=3. Here is the method: (§1) Assays were performed with 4-NPB as the substrate.
In data set [4] the target is Anopheles gambiae CBE. The data set is described as follows: Inhibition of insect CBEs, 4-NPB substrate. It is filed as biochemical. The following applies: n=3. As to the method: as §1
The target of data set [5] is Aedes aegypti CBE. Nature of the data set: Inhibition of insect CBEs, 4-NPB substrate. The conditions noted are these: n=3. Type of data set: biochemical. As to the method:
as §1

Data set [6] concerns Lucilia cuprina larvae, laboratory drug-susceptible strain LS. Nature of the data set: Lucilia cuprina larval bioassay (pupation rate), laboratory strain. It is filed as in vivo. The following applies: for synergism with diazinon (in words): susceptible strain. As to the method: Inhibitor efficacy was determined by treating larvae with diazinon over a range of concentrations, in the presence or absence of the compounds at constant concentrations, and comparing pupation rates.
Two strains of L. cuprina were used: 1) a laboratory reference drug-susceptible strain, LS, derived from collections in the Australian Capital Territory over 40 years ago, with no history of exposure to insecticides; and 2) a field-collected strain, Tara, resistant to diazinon and diflubenzuron (Levot, G. W. & Sales, N. New high level resistance to diflubenzuron detected in the Australian sheep blowfly, Lucilia cuprina (Wiedemann) (Diptera: Calliphoridae). Gen. Appl. Entomol. 31, 43-46 (2002)). The LcαE7 gene was sequenced in each of the strains. Briefly, genomic DNA was prepared from 20 adult female flies from each strain using the DNeasy Blood and Tissue kit (Qiagen). PCR was performed with primers specific to the LcαE7 gene, and the product was cloned into a pGEM-T EASY vector (Promega). Eight clones of the susceptible strain and 10 clones of the resistant strain were sequenced using M13 forward and reverse primers.
Each experiment utilized 50 larvae at each diazinon/malathion concentration. Experiments were replicated three times for diazinon, and twice for malathion. The insecticidal effects were defined by measuring the pupation rate. […] Compounds were also without diazinon or malathion at 1 mg per assay.

Data set [7] has as its system HB-2 cells. Nature of the data set: Cellular toxicity, Cell Titer Glo. The following applies: for toxicity to HB-2 cells (in words): 48 h, up to 100 μM; for pIC50: Homo sapiens, 48 h incubation, Cell Titer Glo, read-out: Viability IC50 HB-2. Type of data set: cell-based, human. As to the method: (§2) A seven-point, two-fold dose response series, with a 100 uM as the upper limit and a DMSO-only control point was generated using an Echo 550 liquid handler (Labcyte Inc.) in 384-well plates. Subsequently, the human breast cell lines MDA-MB-231 (tumorigenic) and HB2 (non-tumorigenic) were seeded (1000 cells/well) using a multi-drop Combi (Thermo Fisher Scientific) on top of the compounds. Plates were then incubated at 37° C. and 5% CO2 for 48 hours upon which cell viability was assessed by adding CellTiter-Glo® (Promega) to the reaction. The luminescence signal was measured on a Pherastar FS multi-mode plate reader (BMG Labtech).

The test system of data set [8] is MDA-MB-231 cells. The data set is described as follows: Cellular toxicity, Cell Titer Glo. Type of data set: cell-based, human. The conditions noted are these: for pIC50: Homo sapiens, MDA-MB-231, 48 h incubation, Cell Titer Glo, read-out: Viability IC50 MDA-MB-231; for toxicity to MDA-MB-231 cells (in words): 48 h, up to 100 μM. As to the method: as §2
(In general: Cellular ATP, detected with luciferase, serves as a proxy for viable cell number.)

The target in data set [9] is T2, Trypsin (Bos taurus, UniProt P00760).
T2 construct: gene PRSS1
T2 sequence (P00760 24-246): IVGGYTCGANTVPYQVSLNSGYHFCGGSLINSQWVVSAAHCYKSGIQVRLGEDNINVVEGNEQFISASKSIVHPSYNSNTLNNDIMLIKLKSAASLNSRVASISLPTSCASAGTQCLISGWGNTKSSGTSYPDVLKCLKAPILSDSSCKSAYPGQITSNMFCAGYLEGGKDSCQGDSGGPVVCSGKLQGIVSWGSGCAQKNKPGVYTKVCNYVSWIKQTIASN
Nature of the data set: Trypsin selectivity. Type of data set: biochemical. As to the method:
To characterize the selectivity of boronic acids 1 to 5, they were assayed against AChE, the target of OP and carbamate insecticides (Table 1) as well as trypsin and bacterial AmpC β-lactamase. […] The toxicity of the hits against two human cell lines was further assessed.
To characterize the selectivity of boronic acids 1 to 5, they were assayed against the target of OP insecticides, AChE, as well as trypsin and bacterial AmpC β-lactamase (Table 1). AChE and αE7 are homologous, sharing the α/β-hydrolase fold and the same catalytic machinery, however the topology of their binding pockets is dissimilar (Jackson, C. J. et al. Structure and function of an insect α-carboxylesterase (αEsterase7) associated with insecticide resistance. Proc. Natl. Acad. Sci. U.S.A. 110, 10177-82 (2013) and Correy, G. J. et al. Mapping the Accessible Conformational Landscape of an Insect Carboxylesterase Using Conformational Ensemble Analysis and Kinetic Crystallography. Structure 24, 1-11 (2016).). Both trypsin and AmpC β-lactamase contain an activated serine nucleophile and oxyanion hole, however trypsin contains a serine-histidine-aspartic acid (Hedstrom, L. Serine protease mechanism and specificity. Chem. Rev. 102, 4501-4523 (2002).) while AmpC β-lactamase contains a serine-tyrosine-lysine catalytic triad (Dubus, A., et al. The roles of residues Tyr150, Glu272, and His314 in class C β-lactamases. Proteins Struct. Funct. Genet. 25, 473-485 (1996).).

pIC50, pKi: −log10 of the molar value.

With `OB(O)c1ccc(OCc2ccccc2F)c(Cl)c1` [Compound 5, 3-Chloro-4(2′-fluorobenzyloxy) phenylboronic acid], the pIC50 is 4.04 in data set [1], 4.11 in data set [7] and below 4.00 in data set [8]. Moreover, the pKi in data set [2] is below 4.00; in [3], 6.38; in [4] it was 7.52; in data set [5] it was 4.40; in [9], below 4.00. In addition, the “synergism with diazinon (in words)” value in [6] is reported as “No synergism was observed”. In addition, in [7], the “toxicity to HB-2 cells (in words)” value is listed as “low toxicity”.
On to `OB(O)c1cc(Br)cc(N2CCCC2)c1` [Compound 3], for which the pIC50 in [1], in data set [7] and in [8] was below 4.00 each time. The pKi in data set [2] is 3.57; in data set [3], 5.33; in data set [4] it was 6.10; in data set [5], 5.00; in data set [9], below 4.00. Moreover, in data set [2] (tested to solubility limits (FIG. 9)), the “inhibition of Electrophorus electricus acetylcholinesterase” value was above 50%. For the same compound, in data set [6], the “synergism with diazinon (in words)” value was “synergism was observed”.
For `OB(O)c1ccccc1` [PBA, phenylboronic acid, reference compound], the pKi in data set [2] was below 2.00.
Consider `Cc1ccc(B(O)O)cc1Br` [Compound 1], for which the pIC50 in data set [1], in [7] and in [8] was below 4.00 in each case. Besides, the pKi is below 3.00 in data set [2] and below 4.00 in data set [9].
Consider `OB(O)c1cc(Br)cc(OCc2ccccc2)c1` [Compound 3.9], for which the pIC50 in data set [1] is below 4.00. Also, the “synergism with diazinon (in words)” value in data set [6] is “synergism was observed”. In addition, in [7], the “toxicity to HB-2 cells (in words)” value is on record as “do not exhibit any cellular toxicity”. Besides, in [8], the “toxicity to MDA-MB-231 cells (in words)” value is on record as “do not exhibit any cellular toxicity”.
As to `Cc1ccc(B(O)O)cc1OCc1ccccc1` [Compound 2], the negative logarithm of the IC50 (pIC50) in [1] was 4.37; in data set [7], 4.69; in data set [8], below 4.00. Moreover, the pKi in data set [2] was below 3.52; in [3], 5.62; in data set [4], 6.77; in data set [5], 5.51; in [9], below 4.00. The “synergism with diazinon (in words)” value in data set [6] is on record as “No synergism was observed”. Also, in [7], the “toxicity to HB-2 cells (in words)” value was “low toxicity”.
For `CC(C)Oc1cc(Br)cc(B(O)O)c1` [Compound 3.7, 3-Bromo-5-isopropoxyphenylboronic acid], the pKi in data set [3] was 6.05; in data set [4] it was 6.48; in [5], 5.59.
As for `OB(O)c1cc(Br)cc(N2CCOCC2)c1` [Compound 3.1], the “reduction of diazinon EC50 compared to a diazinon only control” value in [6] (susceptible laboratory strain) amounted to 5.7 fold.
Consider `OB(O)c1cc(Br)cc(Oc2ccccc2)c1` [Compound 3.10, 3-Bromo-5-phenoxyfenylboronic acid], for which the “reduction of malathion EC50 compared to a malathion only control” value in data set [6] (laboratory strain) is reported as 16 fold. In data set [6], the “synergism with diazinon (in words)” value is recorded as “synergism was observed”. Further, the “toxicity to HB-2 cells (in words)” value in data set [7] was “do not exhibit any cellular toxicity”. In addition, the “toxicity to MDA-MB-231 cells (in words)” value in [8] is on record as “do not exhibit any cellular toxicity”.
As for `OB(O)c1ccc2ccccc2c1` [Compound 4], the pIC50 in data set [1], in data set [7] and in [8] was below 4.00 throughout. Also, the pKi in data set [2] is below 3.00; in data set [9], below 5.00.
